Data: US5336672A, “Increasing egg production in poultry” (Board of Supervisors of Louisiana State University and …, priority 1992, dated 1994)
Like-named read-outs stand apart in the source and are kept apart here.

Key:
laying hen = conditions: Jensen et al. 1978; cited from earlier work
turkey poults = conditions: Steele et al. 1979; Rosebrough et al. 1981; may depend on Cr (III) in an organic form; cited from earlier work
turkey breast tissue = conditions: supplemental Cr; Anderson et al. 1989; cited from earlier work
adult men = conditions: Cr supplementation; cited from earlier work
rabbits = conditions: cited from earlier work
laying hens [1] = conditions: dietary; Jensen et al. 1980; cited from earlier work
rats = conditions: 200 mg/kg picolinic acid in diet; cited from earlier work
swine = conditions: Hill et al. 1986; cited from earlier work
laying hens [2] = assay: Egg production, Example 1 (28-day feeding trial, hens 32-36 weeks of age); format: in vivo, Hyline 36 commercial-type laying hens; conditions: for Egg Production: 28 days, mean of 10 replicates, SEM 2.7, chromium cubic effect P < .03
Description: (§1) Hyline 36 commercial-type laying hens were taken from the Louisiana State University Agricultural Center Poultry Unit. The hens were 32-36 weeks of age during the 28 days of the trial. A randomized complete block design was used, and the hens were blocked on location in the barn. Hens were penned individually in cages (0.30×0.41 m) in an open front building. Each of the six treatments described below was replicated ten times, with one hen per replicate. The hens were fed a corn-soybean meal laying hen basal diet for one week. The composition of the diet is set forth in Table 1, and was formulated to meet or exceed the requirements for all nutrients as stated in "Nutrient Requirements of Poultry," National Research Council (1984). The hens were then randomly allotted to a treatment, and were fed the experimental diets during a 28-day trial. The following treatments were used: (1) Corn-soybean meal basal (B), (2) B+50 ppb Cr, (3) B+100 ppb Cr, (4) B+200 ppb Cr, (5) B+400 ppb Cr, and (6) B+800 ppb Cr. Cromium was administered as chromium picolinate. Treatment diets and water were provided on an ad libitum basis.
(§2) Egg production was recorded daily, and eggs were collected on Days 2, 9, 16, and 23 for determination of specific gravity [weight in air/(weight in air-weight in water)] and Haugh units. (Haugh unit=100 Log10 (Albumen height (in mm)+(7.57-(1.7) (Egg mass in grams)^037))). Eggs were collected on Days 0, 7, 14, 21, and 28 for CH analysis. To determine yolk CH, eggs were hard-cooked by immersion in boiling water for 5 min. Yolks were removed and weighed. The entire yolk was blended with a volume of isopropyl alcohol proportional to the yolk weight (10 ml/g of yolk). The cholesterol content of this extract (mg per g wet weight) was determined by an automated procedure based on the Lieberman-Burchard method. One egg was collected on Day 22 for determination of percentage of egg fat using the acid hydrolysis method, and one egg was collected on Day 24 for determination of percentage of egg crude protein by the Kjeldahl N method.
(§3) Data were analyzed by analysis of variance. Linear, quadratic, and cubic contrasts were used to evaluate the treatment effects. Egg production, specific gravity, Haugh units, and CH were measured over time and analyzed by split-plot analyses using hen(trt*rep) as the error term in the model.

laying hens [3] = assay: Haugh units of eggs, Example 1; format: in vivo, Hyline 36 commercial-type laying hens; conditions: for Haugh units: mean of eggs of Days 2, 9, 16, 23, SEM 1.8
Description: as §1, §2, §3

laying hens [4] = assay: Specific gravity of eggs, Example 1; format: in vivo, Hyline 36 commercial-type laying hens; conditions: for Specific gravity: mean of eggs of Days 2, 9, 16, 23, SEM .001
Description: as §1, §2, §3

laying hens [5] = assay: Percentage of egg fat (acid hydrolysis method), Example 1; format: in vivo, Hyline 36 commercial-type laying hens; conditions: for Egg fat: egg of Day 22, SEM .2, chromium quadratic effect P < .10; for Effect on percentage of egg fat: Cr quadratic, P<0.1
Description: as §1, §2, §3

laying hens [6] = assay: Percentage of egg crude protein (Kjeldahl N method), Example 1; format: in vivo, Hyline 36 commercial-type laying hens; conditions: for Egg Protein: egg of Day 24, SEM .2, chromium quadratic effect P < .02
Description: as §1, §2, §3

laying hens [7] = assay: Egg yolk cholesterol (Lieberman-Burchard method), Example 1; format: in vivo, Hyline 36 commercial-type laying hens; conditions: for Egg CH (cholesterol): mean of eggs of Days 0, 7, 14, 21, 28, SEM .2
Description: as §1, §2, §3

laying hens [8] = assay: Egg production, Example 2 (eight-week trial, hens 28-36 weeks of age); format: in vivo, Hyline 36 commercial-type laying hens; conditions: for Egg Production: eight weeks, SEM 2.7
Description: as §1, §2, §3
(§4) The procedures described in Example 1 were followed, except as noted. The trial lasted eight weeks, and the hens were 28-36 weeks of age during the eight weeks of the trial. The treatments used were (1) Basal (B), (2) B+100 ppb Cr, (3) B+200 ppb Cr, (4) B+300 ppb Cr, and (5) B+400 ppb Cr. Only egg production is reported.

laying hens [9] = assay: Egg production, Example 3 (eight-week trial, hens 48-56 weeks of age); format: in vivo, Hyline 36 commercial-type laying hens; conditions: for Egg Production: eight weeks, SEM 4.3
Description: as §1, §2, §3, §4
The procedures of Example 2 were followed, except that the hens were 48-56 weeks of age during the eight weeks of the trial.

[10] = hens receiving 100 and 200 ppb Cr
[11] = overall, 100-400 ppb Cr, P>0.10

## [Cr] [Cr, chromium]
Laying hen
  Biological activity in the laying hen: biologically active
Turkey poults
  Growth rate of turkey poults: improved
Turkey breast tissue
  Turkey breast tissue: small increase
Adult men
  HDL cholesterol: increases
  Serum triglycerides: decreases
rabbits
  Cholesterol (CH) accumulation: decreased
  Removal rate of CH already deposited in the aorta: increased

## O.O.O.O.O.O.[Cl][Cr]([Cl])[Cl] [CrCl3.6H2 O]
Laying hens [1]
  Effect on egg production: no positive effect

## O=C(O)c1ccccn1 [picolinic acid, pyridine-2-carboxylic acid]
rats
  Growth rates in rats: greater growth rates
swine
  Growth rates: faster growth rates
  Zinc absorption: did not aid zinc absorption

## chromium picolinate
Laying hens [2]; B + 50 ppb Cr in diet
  Egg Production: 79.3%
Laying hens [2]; B + 100 ppb Cr in diet
  Egg Production: 81.1%
Laying hens [2]; B + 200 ppb Cr in diet
  Egg Production: 83.2%
Laying hens [2]; B + 400 ppb Cr in diet
  Egg Production: 76.1%
Laying hens [2]; B + 800 ppb Cr in diet
  Egg Production: 77.7%
Laying hens [2]; at 400 and 800 ppb Cr, Cr cubic, P<0.03
  Effect on egg production: decreased
Laying hens [2]; in the diet, from the experiments of Examples 1-3
  Optimum dosage of CrPic for egg production: 100-200 ppb Cr
Laying hens [2]; supplementing the diet with CrPic, summary statement
  Effect on egg production: incrementally increased in some circumstances
Laying hens [2]; through 200 ppb Cr, Cr cubic, P<0.03
  Effect on egg production: increased
Laying hens [3]; B + 50 ppb Cr in diet
  Haugh units: 82.6
Laying hens [3]; B + 100 ppb Cr in diet
  Haugh units: 84.6
Laying hens [3]; B + 200 ppb Cr in diet
  Haugh units: 82.0
Laying hens [3]; B + 400 ppb Cr in diet
  Haugh units: 85.0
Laying hens [3]; B + 800 ppb Cr in diet
  Haugh units: 79.7
Laying hens [3]; P>0.1
  Effect on Haugh units: not affected
Laying hens [4]; B + 50 ppb Cr in diet
  Specific gravity: 1.085
Laying hens [4]; B + 100 ppb Cr in diet
  Specific gravity: 1.084
Laying hens [4]; B + 200 ppb Cr in diet
  Specific gravity: 1.084
Laying hens [4]; B + 400 ppb Cr in diet
  Specific gravity: 1.084
Laying hens [4]; B + 800 ppb Cr in diet
  Specific gravity: 1.085
Laying hens [4]; P>0.1
  Effect on specific gravity: not affected
Laying hens [5]; B + 50 ppb Cr in diet
  Egg fat: 10.2%
Laying hens [5]; B + 100 ppb Cr in diet
  Egg fat: 10.6%
Laying hens [5]; B + 200 ppb Cr in diet
  Egg fat: 10.8%
Laying hens [5]; B + 400 ppb Cr in diet
  Egg fat: 10.0%
Laying hens [5]; B + 800 ppb Cr in diet
  Egg fat: 9.9%
Laying hens [5]; hens receiving 50, 400, and 800 ppb Cr
  Effect on percentage of egg fat: lower
Laying hens [5]; [10]
  Effect on percentage of egg fat: higher
Laying hens [6]; B + 50 ppb Cr in diet
  Egg Protein: 12.2%
Laying hens [6]; B + 100 ppb Cr in diet
  Egg Protein: 12.2%
Laying hens [6]; B + 200 ppb Cr in diet
  Egg Protein: 12.2%
Laying hens [6]; B + 400 ppb Cr in diet
  Egg Protein: 12.6%
Laying hens [6]; B + 800 ppb Cr in diet
  Egg Protein: 12.3%
Laying hens [6]; CrPic supplementation to the diet, Cr quadratic, P<0.02
  Effect on percentage of egg crude protein: reduced
Laying hens [7]; B + 50 ppb Cr in diet
  Egg CH (cholesterol): 12.1 mg/g yolk
Laying hens [7]; B + 100 ppb Cr in diet
  Egg CH (cholesterol): 11.7 mg/g yolk
Laying hens [7]; B + 200 ppb Cr in diet
  Egg CH (cholesterol): 11.9 mg/g yolk
Laying hens [7]; B + 400 ppb Cr in diet
  Egg CH (cholesterol): 12.1 mg/g yolk
Laying hens [7]; B + 800 ppb Cr in diet
  Egg CH (cholesterol): 11.9 mg/g yolk
Laying hens [7]; CrPic supplementation overall, P>0.1
  Effect on egg CH: not affected
Laying hens [7]; by Day 28 of the trial, Cr quadratic, P<0.05
  Effect on egg CH by Day 28: reduced
Laying hens [7]; [10]
  Effect on egg CH: tended to be lower
Laying hens [8]; B + 100 ppb Cr in diet
  Egg Production: 85.2%
Laying hens [8]; B + 200 ppb Cr in diet
  Egg Production: 82.3%
Laying hens [8]; B + 300 ppb Cr in diet
  Egg Production: 84.5%
Laying hens [8]; B + 400 ppb Cr in diet
  Egg Production: 81.6%
Laying hens [8]; at 100 ppb Cr
  Effect on egg production: numerical increase in egg production
Laying hens [8]; [11]
  Effect on egg production: not observed to affect egg production
Laying hens [9]; B + 100 ppb Cr in diet
  Egg Production: 83.0%
Laying hens [9]; B + 200 ppb Cr in diet
  Egg Production: 82.1%
Laying hens [9]; B + 300 ppb Cr in diet
  Egg Production: 74.8%
Laying hens [9]; B + 400 ppb Cr in diet
  Egg Production: 77.1%
Laying hens [9]; at 100 ppb Cr
  Effect on egg production: numerical increase in egg production
Laying hens [9]; [11]
  Effect on egg production: not observed to affect egg production
